Reference: patent publication US10577362B2, “Substituted 2, 4-diamino-quinoline derivatives for use in the treatment of proliferative diseases” (GENOSCIENCE PHARMA, priority 2016, dated 2020)

Experiments:
[1] = system: MOLM-14 (acute myeloid leukemia) cell line; assay: CellTiter-Glo luminescent cell viability assay, MOLM-14; type: cell-based, human; settings: Homo sapiens; for viability at 4 µM: MOLM-14, compound at 4 μM; for viability at 4 µM / viability at 10 µM: 72 h; for viability at 10 µM: MOLM-14, compound at 10 μM; for EC50: MOLM-14 cell line, 72 h incubation, CellTiter-Glo, read-out: EC50, growth inhibition of MOLM-14
Summary of the method: (§1)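 Adherent lines plated overnight, MOLM-14 (suspension) 1 h before dosing, in medium with 10% FBS at 37 °C, 5% CO2. Compounds added at varying concentrations for 72 h; CellTiter-Glo luminescence read, EC50 as dose reducing signal to 50% of diluent-treated cells, at least duplicate points.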

[2] = system: A375 (malignant melanoma) cell line; assay: CellTiter-Glo luminescent cell viability assay, A375; type: cell-based, human; settings: Homo sapiens, A-375; for viability at 4 µM: A375, compound at 4 μM; for viability at 4 µM / viability at 10 µM: 72 h; for viability at 10 µM: A375, compound at 10 μM; for EC50: A375 cell line, 72 h incubation, CellTiter-Glo, read-out: EC50, growth inhibition of A375
Summary of the method: (§2)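 72 h compound exposure, 37 °C, 5% CO2, 10% FBS medium; ATP luminescence read after 30 min RT equilibration. Viability as % of H2O/DMSO diluent control; EC50 = dose giving 50% of control signal. Duplicate points minimum.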

[3] = system: HCT-116 (colorectal carcinoma) cell line; assay: CellTiter-Glo luminescent cell viability assay, HCT-116; type: cell-based, human; settings: Homo sapiens; for viability at 4 µM: HCT-116, compound at 4 μM; for viability at 4 µM / viability at 10 µM: 72 h; for viability at 10 µM: HCT-116, compound at 10 μM; for EC50: HCT-116 cell line, 72 h incubation, CellTiter-Glo, read-out: EC50, growth inhibition of HCT-116
Summary of the method: as §2

[4] = system: Huh7 (hepatocellular carcinoma) cell line; assay: CellTiter-Glo luminescent cell viability assay, Huh7; type: cell-based, human; settings: Homo sapiens, Huh-7; for viability at 4 µM: Huh7, compound at 4 μM; for viability at 4 µM / viability at 10 µM: 72 h; for viability at 10 µM: Huh7, compound at 10 μM; for EC50: Huh7 cell line, 72 h incubation, CellTiter-Glo, read-out: EC50, growth inhibition of Huh7
Summary of the method: as §1

[5] = system: 786-O (renal adenocarcinoma) cell line; assay: CellTiter-Glo luminescent cell viability assay, 786-O; type: cell-based, human; settings: Homo sapiens, 786-0; for EC50: 786-O cell line, 72 h incubation, CellTiter-Glo, read-out: EC50, growth inhibition of 786-O; for viability at 4 µM / viability at 10 µM: 786-O, 72 h; for viability at 4 µM: compound at 4 μM; for viability at 10 µM: compound at 10 μM
Summary of the method: as §2

[6] = system: HepG2 (hepatocellular carcinoma) cell line; assay: CellTiter-Glo luminescent cell viability assay, HepG2; type: cell-based, human; settings: Homo sapiens; for viability at 4 µM / viability at 10 µM: HepG2, HepG, 72 h; for viability at 4 µM: compound at 4 μM; for viability at 10 µM: compound at 10 μM; for EC50: HepG2 cell line, 72 h incubation, CellTiter-Glo, read-out: EC50, growth inhibition of HepG2
Summary of the method: as §1

[7] = system: PANC-1 (prancreatic carcinoma) cell line; assay: CellTiter-Glo luminescent cell viability assay, PANC-1; type: cell-based; settings: Homo sapiens; for viability at 4 µM: PANC-1, 4 μM; for viability at 4 µM / viability at 10 µM: 72 h, % of signal of diluent-treated cultures; for viability at 10 µM: PANC-1, 10 μM; for EC50: PANC-1 cell line, 72 h incubation, CellTiter-Glo, read-out: EC50 (growth inhibition assay of PANC-1 cell line)
Summary of the method: as §1

Row | Compound | viability at 4 µM [1] | viability at 10 µM [1] | EC50 [1] | viability at 4 µM [2] | viability at 10 µM [2] | EC50 [2] | viability at 4 µM [3] | viability at 10 µM [3] | EC50 [3] | viability at 4 µM [4] | viability at 10 µM [4] | EC50 [4] | EC50 [5] | viability at 4 µM [5] | viability at 10 µM [5] | viability at 4 µM [6] | viability at 10 µM [6] | EC50 [6] | viability at 4 µM [7] | viability at 10 µM [7] | further results
1 | CN1CCC(NC2CCCN(c3c(C#N)c(NCc4ccc(Cl)cc4)nc4ccccc34)C2)CC1 (stereo not drawn) [Compound 3162CN, 2-(4-chlorobenzylamino)-3-cyano-4-{3-[(1-methylpiperidin-4-yl)amino]piperidin-1-yl}quinoline] | 0.5% | 0.3% | 0.5 to 5 µM | 0.4% | 0.2% | 0.5 to 5 µM | 0.3% | 0.2% | 0.5 to 5 µM | 0.5% | 0.2% | 0.5 to 5 µM | 0.5 to 5 µM | 0.5% | 0.3% | 0.3% | 0.2% | 0.5 to 5 µM | 51.6% | 0.4% | 
2 | CN(C)C1CCCN(c2c(C#N)c(NCc3ccc(Cl)cc3)nc3ccccc23)C1 (stereo not drawn) [Compound 3164CN, 2-(4-chlorobenzylamino)-3-cyano-4-[3-(dimethylamino)piperidin-1-yl]quinoline] | 113% | 74.6% |  | 89.2% | 39.3% |  | 91.2% | 38.4% |  | 91.9% | 51.1% |  |  | 97.1% | 64.1% | 101% | 52.9% |  | 98.7% | 69.6% | 
3 | CN1CCN(C2CCCN(c3c(C#N)c(NCc4ccc(Cl)cc4)nc4ccccc34)C2)CC1 (stereo not drawn) [Compound 3168CN, 2-(4-chlorobenzylamino)-3-cyano-4-[3-(4-methylpiperazin-1-yl)piperidin-1-yl]quinoline] | 105% | 0.8% | 5 to 10 µM | 61% | 0.8% | 0.5 to 5 µM | 40.7% | 0.5% | 0.5 to 5 µM | 80.1% | 0.7% | 0.5 to 5 µM | 0.5 to 5 µM | 75.4% | 0.6% | 87.8% | 0.6% | 5 to 10 µM | 100% | 22.3% | EC50 [7]: 5 to 10 µM
4 | N#Cc1c(NCc2ccc(Cl)cc2)nc2ccccc2c1N1CCC(N)CC1 [Compound 3170CN, 2-(4-chlorobenzylamino)-3-cyano-4-(4-aminopiperidin-1-yl)quinoline] | 84.2% | 0.4% | 0.5 to 5 µM | 0.5% | 0.3% | 0.5 to 5 µM | 0.7% | 0.2% | 0.5 to 5 µM | 79.4% | 0.4% | 0.5 to 5 µM | 0.5 to 5 µM | 36.5% | 0.4% | 0.6% | 0.3% | 0.5 to 5 µM | 89.6% | 0.6% | EC50 [7]: 5 to 10 µM
5 | CNC1CCN(c2c(C#N)c(NCc3ccc(Cl)cc3)nc3ccccc23)CC1 [Compound 3172CN, 2-(4-chlorobenzylamino)-3-cyano-4-[4-(methylamino)piperidin-1-yl]quinoline] | 0.5% | 0.4% | 0.5 to 5 µM | 0.4% | 0.3% | 0.5 to 5 µM | 0.2% | 0.1% | 0.5 to 5 µM | 30.7% | 0.4% | 0.5 to 5 µM | 0.5 to 5 µM | 0.5% | 0.3% | 0.5% | 0.4% | 0.5 to 5 µM | 56.4% | 0.5% | EC50 [7]: 5 to 10 µM
6 | CC(C)NC1CCN(c2c(C#N)c(NCc3ccc(Cl)cc3)nc3ccccc23)CC1 [Compound 3174CN, 2-(4-chlorobenzylamino)-3-cyano-4-[4-(iso-propylamino)piperidin-1-yl]quinoline] | 24.4% | 0.3% | 0.5 to 5 µM | 0.3% | 0.2% | 0.5 to 5 µM | 0.3% | 0.1% | 0.5 to 5 µM | 62.9% | 0.3% | 0.5 to 5 µM | 0.5 to 5 µM | 3.6% | 0.2% | 0.5% | 0.2% | 0.5 to 5 µM | 84.8% | 0.6% | EC50 [7]: 5 to 10 µM
7 | N#Cc1c(NCc2ccc(Cl)cc2)nc2ccccc2c1N1CCC(NC2CCCC2)CC1 [Compound 3178CN, 2-(4-chlorobenzylamino)-3-cyano-4-[4-(cyclopentylamino)piperidin-1-yl]quinoline] | 90.4% | 0.7% | 0.5 to 5 µM | 0.4% | 0.5% | 0.5 to 5 µM | 0.3% | 0.4% | 0.5 to 5 µM | 58.8% | 0.6% | 0.5 to 5 µM | 0.5 to 5 µM | 1.3% | 0.5% | 6% | 0.5% | 0.5 to 5 µM | 85.8% | 0.8% | EC50 [7]: 5 to 10 µM
8 | N#Cc1c(NCc2ccc(Cl)cc2)nc2ccccc2c1N1CCC(NC2CCOCC2)CC1 [Compound 3180CN, 2-(4-chlorobenzylamino)-3-cyano-4-{4-[(tetrahydro-2H-pyran-4-yl)amino]piperidin-1-yl}quinoline] | 92.3% | 22.7% | 5 to 10 µM | 88.6% | 0.3% | 5 to 10 µM | 59.5% | 0.2% | 5 to 10 µM | 76.5% | 0.4% | 5 to 10 µM | 5 to 10 µM | 69.7% | 0.4% | 78.4% | 0.4% | 5 to 10 µM | 94.9% | 58.9% | EC50 [7]: 5 to 10 µM
9 | CN1CCC(NC2CCN(c3c(C#N)c(NCc4ccc(Cl)cc4)nc4ccccc34)CC2)CC1 [Compound 3182CN, 2-(4-chlorobenzylamino)-3-cyano-4-{4-[(1-methylpiperidin-4-yl)amino]piperidin-1-yl}quinoline] | 0.6% | 0.4% | 0.5 to 5 µM | 0.5% | 0.4% | 0.5 to 5 µM | 0.5% | 0.3% | 0.5 to 5 µM | 0.6% | 0.4% | 0.5 to 5 µM | 0.05 to 0.5 µM | 0.6% | 0.4% | 0.5% | 0.3% | 0.5 to 5 µM | 0.8% | 0.5% | 
10 | CN(C)C1CCN(c2c(C#N)c(NCc3ccc(Cl)cc3)nc3ccccc23)CC1 [Compound 3184CN, 2-(4-chlorobenzylamino)-3-cyano-4-[4-(dimethylamino)piperidin-1-yl]quinoline] | 71.8% | 0.6% | 0.5 to 5 µM | 59.5% | 0.5% | 0.5 to 5 µM | 60.5% | 0.5% | 0.5 to 5 µM | 77.4% | 0.6% | 5 to 10 µM | 0.5 to 5 µM | 54.1% | 0.7% | 72.9% | 0.7% | 0.5 to 5 µM | 90.7% | 24.1% | EC50 [7]: 5 to 10 µM
